What was measured:
Conditions in all cases: drug exposure time: 96 h
[1] = compound: CC(C)C[C@H](NC(=O)[C@H](Cc1ccccc1)NC(=O)c1cnccn1)B(O)O [Bortezomib]
Experimental: (§1)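 Same SRB 96 h IC50 screen on breast cancer cell lines (RPMI 1640 + 10% FBS, collagen I-coated 96-well plates, triplicates, 12 dilutions), for drugs with a different dose range: Bortezomib up to 2e-5 M; Sirolimus and 17-AAG up to 2e-6 M. Sirolimus values at the 2e-6 M top dose are censored.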

[2] = compound: C=CCNC1=C2C[C@@H](C)C[C@H](OC)[C@H](O)[C@@H](C)/C=C(\C)[C@H](OC(N)=O)[C@@H](OC)/C=C\C=C(/C)C(=O)NC(=CC1=O)C2=O [17-AAG]
Experimental: as §1

[3] = compound: CO[C@H]1C[C@@H]2CC[C@@H](C)[C@@](O)(O2)C(=O)C(=O)N2CCCC[C@H]2C(=O)O[C@H]([C@H](C)C[C@@H]2CC[C@@H](O)[C@H](OC)C2)CC(=O)[C@H](C)/C=C(\C)[C@@H](O)[C@@H](OC)C(=O)[C@H](C)C[C@H](C)/C=C/C=C/C=C/1C [Sirolimus]
Experimental: as §1

[4] = compound: CC(C)(C)C[C@H]1N[C@@H](C(=O)NCC[C@H](O)CO)[C@H](c2cccc(Cl)c2)[C@@]12C(=O)Nc1cc(Cl)c(F)cc12 [MI-219]
Experimental: (§2)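 Breast cancer cell lines were grown in RPMI 1640 with 10% FBS on collagen I-coated 96-well plates and treated for 96 h (from 24 h after seeding) with 12 dilutions per drug, in triplicate. Growth was read by sulforhodamine B total-protein staining (absorbance 570 nm) relative to diluent control, and IC50 was calculated. The top dose was 1e-5 M for most drugs; Bortezomib went to 2e-5 M and Sirolimus and 17-AAG to 2e-6 M[…].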

[5] = compound: CC(=O)O[C@@]12CO[C@@H]1C[C@H](O)[C@@]1(C)C(=O)[C@H](O)C3=C(C)[C@@H](OC(=O)[C@H](O)[C@@H](NC(=O)OC(C)(C)C)c4ccccc4)C[C@@](O)([C@@H](OC(=O)c4ccccc4)[C@H]21)C3(C)C [Docetaxel]
Experimental: as §2

[6] = compound: CCN(CC)CCNC(=O)c1c(C)[nH]c(/C=C2\C(=O)Nc3ccc(F)cc32)c1C [Sunitinib]
Experimental: as §2

[7] = compound: CNC(=O)c1cc(Oc2ccc(NC(=O)Nc3ccc(Cl)c(C(F)(F)F)c3)cc2)ccn1 [Sorafenib]
Experimental: as §2

[8] = compound: O=C(/C=C/c1cccc(S(=O)(=O)Nc2ccccc2)c1)NO [Belinostat]
Experimental: as §2

[9] = compound: O=c1[nH]cc(F)c(=O)[nH]1 [5-Fluorouracil]
Experimental: as §2

[10] = compound: COc1cc2ncnc(Nc3ccc(F)c(Cl)c3)c2cc1OCCCN1CCOCC1 [Gefitinib]
Experimental: as §2

[11] = compound: O=C(CCCCCCC(=O)Nc1ccccc1)NO [Vorinostat]
Experimental: as §2

[12] = compound: COc1ccc(C2=N[C@@H](c3ccc(Cl)cc3)[C@@H](c3ccc(Cl)cc3)N2C(=O)N2CCNC(=O)C2)c(OC(C)C)c1 [Nutlin-3]
Experimental: as §2

[13] = compound: Cc1nc(Nc2ncc(C(=O)Nc3c(C)cccc3Cl)s2)cc(N2CCN(CCO)CC2)n1 [Dasatinib]
Experimental: as §2

[14] = compound: Cc1[nH]c2ccccc2c1CCNCc1ccc(/C=C/C(=O)NO)cc1 [Panobinostat]
Experimental: as §2

[15] = compound: Nc1ncn([C@H]2C[C@H](O)[C@@H](CO)O2)c(=O)n1 [Decitabine]
Experimental: as §2

[16] = compound: Cc1cc2c(F)c(Oc3ncnn4cc(OC[C@@H](C)O)c(C)c34)ccc2[nH]1 [Brivanib]
Experimental: as §2

[17] = compound: Cn1cc(CNCC2CCN(c3ncc(C(=O)NO)cn3)CC2)c2ccccc21 [Quisinostat]
Experimental: as §2

[18] = compound: CS(=O)(=O)CCNCc1ccc(-c2ccc3ncnc(Nc4ccc(OCc5cccc(F)c5)c(Cl)c4)c3c2)o1 [Lapatinib]
Experimental: as §2

[19] = compound: CN(Cc1cnc2nc(N)nc(N)c2n1)c1ccc(C(=O)N[C@@H](CCC(=O)O)C(=O)O)cc1 [Methotrexate]
Experimental: as §2

[20] = compound: CC(=O)O[C@H]1C(=O)[C@@]2(C)[C@H]([C@H](OC(=O)c3ccccc3)[C@]3(O)C[C@H](OC(=O)[C@H](O)[C@@H](NC(=O)c4ccccc4)c4ccccc4)C(C)=C1C3(C)C)[C@]1(OC(C)=O)CO[C@@H]1C[C@@H]2O [Paclitaxel]
Experimental: as §2

[21] = compound: c1ccc2c(CCNc3ccc(Nc4ccncc4)cc3)c[nH]c2c1 [Serdemetan]
Experimental: as §2

[22] = compound: Nc1ncn([C@@H]2O[C@H](CO)[C@@H](O)[C@H]2O)c(=O)n1 [Azacitidine]
Experimental: as §2

[23] = compound: COc1cc2/c(=N/c3ccc(Br)cc3F)nc[nH]c2cc1OCC1CCN(C)CC1 [Vandetanib]
Experimental: as §2

[24] = compound: C#Cc1cccc(Nc2ncnc3cc(OCCOC)c(OCCOC)cc23)c1 [Erlotinib]
Experimental: as §2

[25] = compound: O=C1c2c(O)ccc(O)c2C(=O)c2c(NCCNCCO)ccc(NCCNCCO)c21 [Mitoxantrone]
Experimental: as §2

[26] = compound: CC/C(=C(\c1ccccc1)c1ccc(OCCN(C)C)cc1)c1ccccc1 [Tamoxifen]
Experimental: as §2

Test System | IC50 (SRB growth assay) [1] [nM] | IC50 (SRB growth assay) [2] [nM] | IC50 (SRB growth assay) [3] [nM] | IC50 (SRB growth assay) [4] [nM] | IC50 (SRB growth assay) [5] [nM] | IC50 (SRB growth assay) [6] [nM] | IC50 (SRB growth assay) [7] [nM] | IC50 (SRB growth assay) [8] [nM] | IC50 (SRB growth assay) [9] [nM] | IC50 (SRB growth assay) [10] [nM] | IC50 (SRB growth assay) [11] [nM] | IC50 (SRB growth assay) [12] [nM] | IC50 (SRB growth assay) [13] [nM] | IC50 (SRB growth assay) [14] [nM] | IC50 (SRB growth assay) [15] [nM] | IC50 (SRB growth assay) [16] [nM] | IC50 (SRB growth assay) [17] [nM] | IC50 (SRB growth assay) [18] [nM] | IC50 (SRB growth assay) [19] [nM] | IC50 (SRB growth assay) [20] [nM] | IC50 (SRB growth assay) [21] [nM] | IC50 (SRB growth assay) [22] [nM] | IC50 (SRB growth assay) [23] [nM] | IC50 (SRB growth assay) [24] [nM] | IC50 (SRB growth assay) [25] [nM] | IC50 (SRB growth assay) [26] [nM]
UACC 893 | 3.92 | 18.2 | 0.072 | > 10000 | 0.701 | 2300 | 4460 | 134 | 8200 | 1710 | 487 | > 10000 | 6910 | 5.26 | > 10000 | > 10000 | 4.25 | > 10000 | 164 | 1.95 | 2870 | > 10000 | 4360 | 1490 | 4.1 | 5500
MDA-MB-175 VII | 8 | 15 | 1.27 | 1360 | 6.87 | > 10000 | 6470 | 493 | 4180 | > 10000 | 898 | 3740 | 513 | 15.2 | > 10000 | > 10000 | 14.8 | > 10000 | 595 | 7.47 | 4890 | > 10000 | 2450 | > 10000 | 12.6 | 7370
SUM 185 PE | 8.04 | 8.53 | 0.0747 | > 10000 | 2.17 | 1040 | 2530 | 352 | > 10000 | > 10000 | 891 | > 10000 | > 10000 | 8.38 | > 10000 | 4530 | 5.45 | > 10000 | > 10000 | 4.07 | 1140 | > 10000 | 2280 | 9480 | 7.18 | 5380
SUM 229 PE | 5.42 | 19.8 | 0.201 | > 10000 | 0.539 | 3320 | 5640 | 1000 | 2960 | 7560 | 1820 | > 10000 | 387 | 25.1 | 27.2 | > 10000 | 10.6 | 27.2 | 25.7 | 1.46 | 292 | > 10000 | 1870 | 7630 | 6.3 | 4170
SUM 159 PT | 3.27 | 4.73 | 0.288 | > 10000 | 0.71 | 1960 | 3730 | 213 | 1680 | > 10000 | 475 | > 10000 | 4060 | 8.19 | 46.7 | > 10000 | 8.78 | 46.7 | 2.36 | 2.95 | 547 | > 10000 | 5260 | 5260 | 1.24 | 6360
MDA-MB 231 | 4.43 | 683 | 4.75 | > 10000 | 0.535 | 2520 | 4270 | 410 | 2580 | > 10000 | 1320 | > 10000 | 67.6 | 15.5 | 65.7 | 6480 | 16.1 | 65.7 | 2.1 | 1.49 | 474 | > 10000 | 4800 | > 10000 | 2.65 | 9790
SUM 190 PT | 6.51 | 79.5 | 0.548 | > 10000 | 0.883 | 3870 | 2060 | 4610 | > 10000 | > 10000 | 4730 | > 10000 | 223 | 78 | > 10000 | > 10000 | 72.4 | > 10000 | > 10000 | 1.91 | 871 | > 10000 | 4540 | 5250 | 20.8 | 8040
SUM 149 PT | 5.35 | 17.7 | 10.7 | > 10000 | 0.226 | 3430 | 5590 | 171 | 7760 | 2860 | 515 | > 10000 | 70.6 | 8.96 | 81 | > 10000 | 6.79 | 81 | 10.6 | 1.31 | 608 | > 10000 | 877 | 766 | 1 | 5210

Source: the supplement of paper PMC4628005
